Like-named read-outs stand apart in the source and are kept apart here.
How the values were obtained:
[1] = molecular target: T1, mycobacterial protein kinase G (PknG) (Mycobacterium tuberculosis, UniProt P9WI73); assay: biochemical
T1 construct: GST; made in house; host or cells: E. coli BL21

[2] = test system: M. smegmatis expressing wildtype PknG in murine macrophage cell line RAW; assay type: cell-based, Mycobacterium smegmatis; details: FIG. 2
[3] = ATP near Km, read-out: Inhibition of PknG (IC50, [μM])
[4] = ranging from about 2 μM and more than 30 μM over the listed compounds, read-out: IC50 values, inhibition of PknG (span stated for the group)
[5] = read-out: IC50 value, inhibition of serine/threonine protein kinase G of M. tuberculosis

T1 sequence (P9WI73 whole entry): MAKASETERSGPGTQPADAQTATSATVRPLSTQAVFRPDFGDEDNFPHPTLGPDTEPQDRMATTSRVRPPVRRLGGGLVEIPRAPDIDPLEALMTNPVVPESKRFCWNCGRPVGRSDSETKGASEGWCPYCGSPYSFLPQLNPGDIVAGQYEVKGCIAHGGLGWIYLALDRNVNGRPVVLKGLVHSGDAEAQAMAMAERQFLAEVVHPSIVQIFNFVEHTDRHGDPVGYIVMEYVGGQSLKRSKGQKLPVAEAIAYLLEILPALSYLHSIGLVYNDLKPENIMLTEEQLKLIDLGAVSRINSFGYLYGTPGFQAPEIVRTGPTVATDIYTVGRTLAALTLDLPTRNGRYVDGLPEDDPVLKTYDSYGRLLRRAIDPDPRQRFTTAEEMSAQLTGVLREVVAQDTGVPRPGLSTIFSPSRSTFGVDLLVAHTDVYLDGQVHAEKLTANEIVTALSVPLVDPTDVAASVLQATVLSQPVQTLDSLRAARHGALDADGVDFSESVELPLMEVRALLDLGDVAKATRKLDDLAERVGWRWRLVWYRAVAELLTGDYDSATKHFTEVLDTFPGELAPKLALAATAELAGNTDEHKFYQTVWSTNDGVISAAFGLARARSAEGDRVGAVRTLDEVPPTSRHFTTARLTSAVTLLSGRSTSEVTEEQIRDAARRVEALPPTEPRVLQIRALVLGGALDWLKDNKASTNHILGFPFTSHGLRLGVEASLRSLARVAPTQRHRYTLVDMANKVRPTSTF

SMILES | IC50 [1, 3] [µM] | IC50 [1, 4] [µM] | IC50 [1, 5] [µM] | resistance to macrophage degradation of wildtype PknG-expressing M. smegmatis ([2]; 1 μM or 10 μM) | clearance of PknG-expressing M. smegmatis in macrophages ([2]; 10 μM, 24 hours postinfection, RAW cells)
CC(C)C(=O)Nc1sc2c(c1C(N)=O)CCCC2 [Compound 255, 2-Isobutyrylamino-4,5,6,7-tetrahydrobenzo[b]thiophene-3-carboxylic acid amide] | ~3 | ≥ 2 |  |  | 
NC(=O)c1c(NC(=O)C2CC2)sc2c1CCSC2 [Compound 286, 2-(Cyclopropanecarbonyl-amino)-4,7-dihydro-5H-thieno[2,3-c]-thiopyran-3-carboxylic acid amide] | ~2 | ≥ 2 |  |  | 
CC(=O)Nc1sc2c(c1C(N)=O)CCC(C)C2 (centres unmarked) [Compound 284, 2-Acetylamino-6-methyl-4,5,6,7-tetrahydrobenzo[b]thiophene-3-carboxylic acid amide] | ~12 | ≥ 2 |  |  | 
CCOC(=O)c1c(NC(=O)C(C)C)sc2c1CCCC2 [Compound 256, 2-Isobutyrylamino-4,5,6,7-tetrahydrobenzo[b]thiophene-3-carboxylic acid ethyl ester] | > 30 | ≥ 2 |  |  | 
CC(=O)Nc1sc2c(c1C(N)=O)CCCC2 [Compound 250, 2-Acetylamino-4,5,6,7-tetrahydrobenzo[b]thiophene-3-carboxylic acid amide] | > 30 | ≥ 2 |  |  | 
NC(=O)c1c(NC(=O)Cc2ccc([N+](=O)[O-])cc2)sc2c1CCCC2 [Compound 238, 2-[2-(4-Nitrophenyl)-acetylamino]-4,5,6,7-tetrahydro-benzo[b]thiophene-3-carboxylic acid amide] | ~5 | ≥ 2 |  |  | 
O=C(O)c1c(NC(=O)C2CC2)sc2c1CCCC2 [Compound 252, 2-(Cyclopropanecarbonyl-amino)-4,5,6,7-tetrahydro-benzo[b]thiophene-3-carboxylic acid] | ~19 | ≥ 2 |  |  | 
O=C(Nc1sc2c(c1C(=O)NCCO)CCCC2)c1ccco1 [Compound 240, Furan-2-carboxylic acid [3-(2-hydroxy-ethylcarbamoyl)-4,5,6,7-tetrahydro-benzo[b]thiophen-2-yl]-amide] | 16 | ≥ 2 |  |  | 
NC(=O)c1c(NC(=O)C2CC2)sc2c1CCCC2 [Compound 237, 2-(Cyclopropanecarbonyl-amino)-4,5,6,7-tetrahydro-benzo[b]thiophene-3-carboxylic acid amide] |  |  | 0.2 | overcomes the resistance to macrophage degradation | as efficient as observed with the mutant or vector control transformants
CC1CCc2c(sc(NC(=O)Cn3cnc([N+](=O)[O-])n3)c2C(N)=O)C1 (centres unmarked) [Compound 239, 6-Methyl-2-[2-(3-nitro-[1,2,4]triazol-1-yl)-acetylamino]-4,5,6,7-tetrahydro-benzo[b]thiophene-3-carboxylic acid amide] | > 30 | ≥ 2 |  |  | 
CC1CCc2c(sc(NC(=O)C3CC3)c2C(N)=O)C1 (centres unmarked) [Compound 270, 2-(Cyclopropanecarbonyl-amino)-6-methyl-4,5,6,7-tetrahydrobenzo[b]thiophene-3-carboxylic acid amide] |  |  | 0.9 |  | 
NC(=O)c1c(NC(=O)C2CCC2)sc2c1CCCC2 [Compound 266, 2-(Cyclobutanecarbonyl-amino)-4,5,6,7-tetrahydrobenzo[b]thiophene-3-carboxylic acid amide] | ~3 | ≥ 2 |  |  | 
CCC(C)C(=O)Nc1sc2c(c1C(N)=O)CCCC2 (centres unmarked) [Compound 267, 2-(2-Methyl-butyrylamino)-4,5,6,7-tetrahydrobenzo[b]thiophene-3-carboxylic acid amide] | ~15 | ≥ 2 |  |  | 

Source: patent US20040171603A1, “Novel therapeutic targets for the treatment of mycobacterial infections and compounds useful therefor” (priority 2001, published 2004)
